Results as given in patent US8669244B2, “Cucurbitane-triterpenoid compounds, pharmaceutical composition, use and preparation method thereof” (National Taiwan University, priority 2011, dated 2014).
Each block holds one compound with its values, some of them ahead of it.

Assays:
[1] = target: T1, GAL4-hERα ligand binding domain (LBD) chimeric receptor (Homo sapiens, UniProt P03372); assay: Transactivation assay for estrogen receptor, ALP reporter, compound alone (ERα); assay type: cell-based; conditions: for Maximum activation for ERα: concentration not given; for Activation of ERα: under tested condition (maximum tolerable 2 μM)
T1 construct: expressed in transfected cells; host or cells: CHO-K1 (Chinese hamster cells), transient co-transfection with (UAS)4-ALP reporter plasmid
T1 sequence (P03372 311-547 limits assumed): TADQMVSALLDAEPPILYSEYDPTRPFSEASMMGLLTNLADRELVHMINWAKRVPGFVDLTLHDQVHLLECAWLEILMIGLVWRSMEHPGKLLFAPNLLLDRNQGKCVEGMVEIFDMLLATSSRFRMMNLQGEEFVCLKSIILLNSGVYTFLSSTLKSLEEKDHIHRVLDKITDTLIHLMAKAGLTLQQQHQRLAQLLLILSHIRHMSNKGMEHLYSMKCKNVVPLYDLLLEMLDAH
Excerpt: (§1) 1. Estrogen Activity Analysis: Transactivation Assay for Estrogen Receptor
(§2) Plasmid pBKCMV containing GAL4-hERα (or ERβ) ligand binding domain (LBD) chimeric receptors and plasmid containing (UAS)4-alkaline phosphatase (ALP) […] were co-transfected into Chinese hamster cells (CHO-K1). Compounds with estrogenic activity would interact with estrogen-specific ER to induce the binding of GAL4 and upstream activation sequence (UAS)4 specifically to initiate the expression of ALP gene. Therefore, the ALP activity can be used to determine whether the samples to be assayed have the estrogenic activity.
Cells in high confluence were plated onto 96-well culture plate the day before transfection. The plate was then washed to remove the serum during the day of transfection, followed by addition of two plasmid DNA, GAL4-hER[…] and (UAS)4-ALP in the ratio of 1:1 together with Lipofectamine 2000 (GIBCOBRL) transfection agent and culture medium to form DNA-liposome complex for 5 hours. The sample to be assayed was added into the medium of transfected cells and cultivated for two days.

[2] = target: T2, GAL4-hERβ ligand binding domain (LBD) chimeric receptor (Homo sapiens, UniProt Q92731); assay: Transactivation assay for estrogen receptor, ALP reporter, compound alone (ERβ); assay type: cell-based; conditions: for Maximum activation for ERβ: concentration not given; for Activation of ERβ: under tested condition (maximum tolerable 2 μM); for EC50: compound alone
T2 construct: expressed in transfected cells; host or cells: CHO-K1 (Chinese hamster cells), transient co-transfection with (UAS)4-ALP reporter plasmid
T2 sequence (Q92731 264-498 limits assumed, change not shown): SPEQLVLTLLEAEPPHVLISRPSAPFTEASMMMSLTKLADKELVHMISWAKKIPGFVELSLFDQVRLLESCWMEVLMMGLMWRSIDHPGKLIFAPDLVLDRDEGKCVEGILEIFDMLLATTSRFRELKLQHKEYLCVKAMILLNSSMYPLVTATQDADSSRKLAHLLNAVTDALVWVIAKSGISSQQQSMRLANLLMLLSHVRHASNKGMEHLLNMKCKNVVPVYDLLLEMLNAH
Excerpt: as §1, §2
(§3) The CHO-K1 cell purchased from the Food Industry Research and Development Institute Taiwan with an accession number of CCRC 60006 were cultivated with medium containing 10% FBS and Ham's F12 nutrient mixture (GIBCOBRL). Cells in high confluence were plated onto 96-well culture plate the day before transfection. The plate was then washed to remove the serum during the day of transfection, followed by addition of two plasmid DNA, GAL4-hER[…] and (UAS)4-ALP in the ratio of 1:1 together with Lipofectamine 2000 (GIBCOBRL) transfection agent and culture medium to form DNA-liposome complex for 5 hours. The sample to be assayed was added into the medium of transfected cells and cultivated for two days. The medium was aliquoted for ALP assay using 4-Nitrophenul phosphate disodium salt hexahydrate (pNPP) as the colorimetric substrate for alkaline phosphatase, and reading the absorbance of 405 nm.

[3] = target: T1, GAL4-hERα ligand binding domain (LBD) chimeric receptor; assay: Transactivation assay, combination treatment with 1 nM E2 (ERα); assay type: cell-based
Excerpt: as §2, §3

[4] = target: T2, GAL4-hERβ ligand binding domain (LBD) chimeric receptor; assay: Transactivation assay, combination treatment with 1 nM E2 (ERβ); assay type: cell-based
Excerpt: as §2, §3

[5] = system: CHO-K1 cells; assay: Cytotoxicity to the cells of the transactivation assay; assay type: cell-based, Chinese hamster

Compound: CC(C)=CC(O)C[C@@H](C)[C@H]1CC[C@@]2(C)[C@@H]3C=C[C@@]45OC[C@]3(CC[C@]12C)C4CC[C@H](O)C5(C)C (single isomer, unassigned) [compound 6, 5β,19-epoxycucurbita-6,24-dien-3β,23ξ-diol]
Maximum activation effect for ERα ([1]; at 22 μM, relative to 1 nM E2): 30 % of E2 | Maximum activation effect for ERβ ([2]; at 22 μM, relative to 1 nM E2): 23 % of E2 | ALP activity, E2-induced ERα activation remaining (E2 = 100%) ([3]; 22 μM compound + 1 nM E2): 10% | ALP activity, E2-induced ERβ activation remaining (E2 = 100%) ([4]; 22 μM compound + 1 nM E2): 24%

Compound: CC(C)=C/C=C/[C@@H](C)[C@H]1CC[C@@]2(C)[C@@H]3C=C[C@@]45OC(=O)[C@]3(CC[C@]12C)C4CC[C@H](O)C5(C)C (stereo partly drawn) [compound 1, cucurbita-6,22(E),24-trien-3β-ol-19,5β-olide]
Maximum activation for ERα ([1]; relative to 1 nM E2): 12 % of E2 | Maximum activation for ERβ ([2]; relative to 1 nM E2): 10 % of E2

Compound: CC(C)=C/C=C/[C@@H](C)[C@H]1CC[C@@]2(C)[C@@H]3C=C[C@@]45OC(O)[C@]3(CC[C@]12C)C4CC[C@H](O)C5(C)C (stereo partly drawn) [compound 2, 5β,19-epoxycucurbita-6,22(E),24-trien-3β,19-diol]
Maximum activation for ERα ([1]; relative to 1 nM E2): 15 % of E2 | Maximum activation for ERβ ([2]; relative to 1 nM E2): 8 % of E2

Compound: CC(C)=C/C=C/[C@@H](C)[C@H]1CC[C@@]2(C)[C@@H]3C=CC4=C(CC[C@H](O)C4(C)C)[C@]3(C=O)CC[C@]12C [compound 3, 3β-hydroxycucurbita-5(10),6,22(E),24-tetraen-19-al]
Activation of ERα [1]: no significant activation | Activation of ERβ [2]: no significant activation | ALP activity, E2-induced ERα activation remaining (E2 = 100%) ([3]; 2 μM compound + 1 nM E2): 48% | ALP activity, E2-induced ERβ activation remaining (E2 = 100%) ([4]; 2 μM compound + 1 nM E2): 73% | Cytotoxicity: maximum tolerable concentration for cells [5]: 2 µM

Compound: COC(OC)[C@@]12CC[C@]3(C)[C@@H]([C@H](C)/C=C/C=C(C)C)CC[C@@]3(C)[C@@H]1C=CC1=C2CC[C@H](O)C1(C)C [compound 4, 19-dimethoxycucurbita-5(10),6,22(E),24-tetraen-3β-ol]
Activation of ERα [1]: no significant activation | Activation of ERβ [2]: no significant activation | Cytotoxicity: maximum tolerable concentration for cells [5]: 2 µM

Compound: CC(C)=C/C=C/[C@@H](C)[C@H]1CC[C@@]2(C)c3ccc4c(c3CC[C@]12C)CC[C@H](O)C4(C)C [compound 5, 19-nor-cucurbita-5(10),6,8,22(E),24-pentaen-3β-ol]
Maximum activation for ERα ([1]; relative to 1 nM E2): 15 % of E2 | Maximum activation for ERβ ([2]; relative to 1 nM E2): 9 % of E2 | E2 induced activation of ERβ remaining ([4]; 1 μM compound + 1 nM E2, p<0.05): 83 % of E2

Maximum activation of ERα ([1]; at 102 (unit not given)): 24 % of E2 | EC50 ([1]; compound alone): 14.2 µM | Maximum activation of ERβ ([2]; at 51 μM): 20 % of E2 | EC50 [2]: 16.7 µM | Maximum activation of ERα with E2 ([3]; 102 μM + 1 nM E2): 146 % of E2 | Maximum activation of ERβ with E2 ([4]; 51 μM + 1 nM E2): 145 % of E2
Compound: CC1(C)C[C@H](O)C[C@@]2(C)OC(=O)C=C12 [loliolide, Loliolide]

Maximum activation of ERβ ([2]; at 35 μM): 26 % that of E2 | EC50 [2]: 11.8 µM | Maximum activation of ERβ with E2 ([4]; lutein at 18 (unit not given) + 1 nM E2): 166 % that of E2
Compound: CC1=C[C@H](O)CC(C)(C)[C@H]1/C=C/C(C)=C/C=C/C(C)=C/C=C/C=C(C)/C=C/C=C(C)/C=C/C1=C(C)C[C@@H](O)CC1(C)C [lutein, Lutein]
